PMC10578308, “Design of Synthetic Surrogates for the Macrolactone Linker Motif in Coibamide A” (ACS Medicinal Chemistry Letters, 2023)
Positions of bridges follow the written chain, without caps; N, C: chain ends. Non-standard residues stand in square brackets, D forms with d. Residues, ends and D or L forms follow the SMILES beside them. *: point of attachment. NMe2Val = CC(C)[C@@H](C(=O)*)N(C)C; NMeI = CC[C@H](C)[C@H](NC)C(=O)O; NMeT = CN[C@H](C(=O)O)[C@@H](C)O; NMeL = CN[C@@H](CC(C)C)C(=O)O; NMeDap = CN[C@@H](CN)C(=O)O; dHiv = CC(C)[C@@H](O)C(=O)O; NMeS = CN[C@@H](CO)C(=O)O; NMeA = CN[C@@H](C)C(=O)O; dNMeA = CN[C@H](C)C(=O)O

Legend:
[1] = system: human A549 lung cancer cells; test: MTS antiproliferative/cell viability assay in A549 cells; format: cell-based; details: for CC50: human A549 lung cancer cells, MTS, 72 h, n = 3, read-out: CC50 (concentration for a 50% decrease in viability)
Description: Next, we synthesized CbA derivatives 3a,b by Fmoc-based SPPS using Fmoc/Alloc protected lysine derivatives 4a,b, according to the synthetic procedure for CbA mimetics in our previous study (Scheme S2).[21] The bioactivity profile of the resulting peptides 3a,b was investigated by using a standard MTS antiproliferative/cell viability assay to assess the cytotoxic potential of CbA analogues against human A549 lung cancer cells (Table 1).
10% (v/v) fetal bovine serum at 37 °C in a 5% CO2-incubator. Viability assays using A549 cells were performed in 96-well plates (BD Falcon). A549 cells were seeded at 1000 cells/well in 90 μL of culture media, respectively, and were cultured for 24 h. Chemical compounds in DMSO were diluted 50-fold with the culture medium in advance. 30 μL of the chemical diluents were added. The final volume of DMSO in the medium was equal to 0.5% (v/v). The cells under chemical treatment were incubated for a further 72 h. The wells in the plates were washed twice with the cultured medium without phenol- […]
After 1-hour incubation with 100 μL of the medium, the cell culture in each well was supplemented with 20 μL of the MTS reagent (Promega), followed by incubation for additional 40 min. Absorbance at 490 nm of each well was measured using a Wallac 1420 ARVO SX multilabel counter (Perkin Elmer).
Three experiments were performed per condition and the averages of inhibition rates in each condition were evaluated to determine IC50 values using the GraphPad Prism software. […]

[2] = biological target: GLuc secretion (model Sec61 substrate) from U87-MG-GLuc cells (Homo sapiens, UniProt P61619); test: Gaussia luciferase (GLuc) secretory assay; format: cell-based; details: 18-h incubation, n = 3, read-out: IC50 (50% inhibition of GLuc expression)
Description: To investigate the mechanistic basis for cytotoxicity, all CbA derivatives were evaluated for their ability to inhibit expression of a model Sec61 substrate using U87-MG cells engineered to express a naturally secreted reporter protein, Gaussia luciferase (GLuc) (Tables 1 and 2). For these studies, U87-MG-GLuc cells were exposed to increasing concentrations of each peptide, or vehicle, for 18 h, and the cell culture medium was assayed for the presence of GLuc. […]
Gaussia Luciferase (GLuc) Secretory Assay
The generation of U87-MG cells expressing the secreted reporter Gaussia luciferase (GLuc) has been described previously.S5,S6 U87-MG-GLuc cells were cultured in Minimum Essential Medium (MEM) with Earl’s salts and L-glutamine (Corning Life Sciences), supplemented with 10% fetal bovine serum […]
(FBS; Hyclone, Logan, UT) and 100 U/mL penicillin and […] streptomycin (1% penicillin/streptomycin). All cells were grown under standard conditions and maintained at 37 °C in an atmosphere of 5% CO2. For analysis of biological activity, cells were seeded at 3,000 cells/well into 96-well plates and allowed to attach overnight. On the day of the experiment, all cells were treated at the same time with the test compound or vehicle (0.1% DMSO) and plates returned to the cell culture

[3] = system: U87-MG glioblastoma cells; test: CellTiter-Glo viability assay, U87-MG cells; format: cell-based, human; details: 50% viability after 72-hr incubation, n = 3
Description: (§1) Viability Assays Using U87 MG Cells, HCT116 Cells and normal human dermal fibroblasts.
Human U87-MG glioblastoma, HCT116 colon cancer cells and normal human dermal fibroblasts were from American Type Culture Collection (ATCC, Manasses, VA). U87-MG cells were cultured in Minimum Essential Medium (MEM) with Earl’s salts and L-glutamine (Corning Life Sciences), supplemented with 10% fetal bovine serum (FBS; Hyclone, Logan, UT) and 100 U/mL penicillin and […] streptomycin (1% penicillin/streptomycin). HCT116 cells were cultured in McCoy’s 5A medium supplemented with 10% FBS and 1% penicillin/streptomycin. […]
(§2) (#PCS-201-041) from ATCC. All cells were grown under standard conditions and maintained at 37 °C in an atmosphere of 5% CO2. For analysis of biological activity, cells were seeded at 3,000 cells/well into 96-well plates and allowed to attach overnight. On the day of the experiment, all cells were treated at the same time with the test compound or vehicle (0.1% DMSO) and plates returned to the cell culture incubator for 72 h. The viability of cells was measured at 72 h using a CellTiter-Glo® Luminescent Cell Viability Assay (Promega Corp) and luminescent signals measured using a multi-mode microplate reader (Biotek Synergy HT). Concentration-response relationships were analyzed using GraphPad Prism Software version 9.5.1 (GraphPad Software, Inc., San Diego, CA), and CC50 values derived using nonlinear regression analysis fit to a logistic equation. […]

[4] = system: HCT116 colon cancer cells; test: CellTiter-Glo viability assay, HCT116 cells; format: cell-based, human; details: 50% viability after 72-hr incubation, n = 3
Description: as §1
(§3) Human U87-MG glioblastoma, HCT116 colon cancer cells and normal human dermal fibroblasts were from American Type Culture Collection (ATCC, Manasses, VA). […]
[…] streptomycin (1% penicillin/streptomycin). HCT116 cells were cultured in McCoy’s 5A medium supplemented with 10% FBS and 1% penicillin/streptomycin. […]
as §2

[5] = system: normal human dermal fibroblasts (HDFs); test: CellTiter-Glo viability assay, normal human dermal fibroblasts; format: cell-based; details: 50% viability after 72-hr incubation, n = 3, read-out: HDF CC50
Description: as §1, §3
as §2, with “Human dermal fibroblasts were cultured in Fibroblast Basal Medium (#PCS-201-030) supplemented with Fibroblast Growth Kit (#PCS-201-041)” for “(#PCS-201-041)”

[6] = as above; format: cell-based; details: normal human dermal fibroblasts (HDFs), 50% viability after 72-hr incubation, n = 3, read-out: HDF CC50
Description: as §1, §3
as §2, with “Human dermal fibroblasts were cultured in Fibroblast Basal Medium (#PCS-201-030) supplemented with Fibroblast Growth Kit (#PCS-201-041)” for “(#PCS-201-041)”

[7] = system: endogenous VEGF-A secreted from human SF-268 glioblastoma cells; test: Detection of secreted VEGF-A by ELISA; format: cell-based; details: 24 h, Figure S5

Sequence of GLuc secretion (model Sec61 substrate) from U87-MG-GLuc cells (P61619 whole entry): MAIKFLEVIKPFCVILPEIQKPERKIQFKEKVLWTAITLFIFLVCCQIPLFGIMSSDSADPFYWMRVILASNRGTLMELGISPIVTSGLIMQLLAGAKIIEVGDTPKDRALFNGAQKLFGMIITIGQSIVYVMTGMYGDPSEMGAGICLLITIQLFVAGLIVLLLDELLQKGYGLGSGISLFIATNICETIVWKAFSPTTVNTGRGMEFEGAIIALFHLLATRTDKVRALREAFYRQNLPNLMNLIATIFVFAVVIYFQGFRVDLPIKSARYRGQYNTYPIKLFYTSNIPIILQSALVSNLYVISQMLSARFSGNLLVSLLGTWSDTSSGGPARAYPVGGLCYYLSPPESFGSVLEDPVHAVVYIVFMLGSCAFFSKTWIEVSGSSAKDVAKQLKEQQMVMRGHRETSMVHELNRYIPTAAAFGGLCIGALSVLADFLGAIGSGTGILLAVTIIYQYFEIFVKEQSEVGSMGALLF

SMILES	CC50 [1] [nM]	IC50 [2] [nM]	CC50 [3] [nM]	CC50 [4] [nM]	CC50 [5] [nM]	fold more potent (cytotoxicity) than 1a ([1]; A549 cells, CC50 compared with 1a)	CC50 at 72 h [6] [nM]	expression of endogenous secreted VEGF-A (in words) [7]	fold more potent (cytotoxicity) than 3a ([1]; A549 cells, CC50 compared with 3a) [fold]
CC[C@H](C)[C@H]1C(=O)N[C@@H](C)C(=O)N(C)[C@@H](CC(C)C)C(=O)N[C@@H](Cc2ccc(OC)cc2)C(=O)N(C)[C@H](C)C(=O)N[C@H](C)[C@H](N(C)C(=O)[C@H](CC(C)C)N(C)C(=O)[C@H](C)N(C)C(=O)[C@H](OC(=O)[C@H](C(C)C)N(C)C)C(C)C)C(=O)N(C)[C@@H](C)C(=O)N1C [Peptide 16a]	3.6 ± 1.4	0.71 ± 0.09	3.9 ± 0.5	4.5 ± 0.5	4.6 ± 1.4	–	–	–	–
CC[C@H](C)[C@H]1C(=O)N[C@@H](C)C(=O)N(C)[C@@H](CC(C)C)C(=O)N[C@@H](Cc2ccc(OC)cc2)C(=O)N(C)[C@H](C)C(=O)O[C@H](C)[C@H](N(C)C(=O)[C@H](CC(C)C)N(C)C(=O)[C@H](C)N(C)C(=O)[C@H](OC(=O)[C@H](C(C)C)N(C)C)C(C)C)C(=O)N(C)[C@@H](C)C(=O)N1C [Peptide 1b, reference compound] (NMe2Val-[dHiv][NMeA][NMeL][NMeT][NMeA][NMeI]A[NMeL]Y(Me)[dNMeA]; ester 4-C)	3.1 ± 0.8	2 ± 0.3	2.6 ± 0.1	3.9 ± 0.5	4.6 ± 1.5	–	–	–	–
CC[C@H](C)[C@H]1C(=O)N[C@@H](C)C(=O)N(C)[C@@H](CC(C)C)C(=O)N[C@@H](Cc2ccc(-c3ccccc3)cc2)C(=O)N(C)[C@H](C)C(=O)N[C@H](C)[C@H](N(C)C(=O)[C@H](CC(C)C)N(C)C(=O)[C@H](COC)N(C)C(=O)[C@H](OC(=O)[C@H](C(C)C)N(C)C)C(C)C)C(=O)N(C)[C@@H](COC)C(=O)N1C [Peptide 16c]	0.27 ± 0.1	0.08 ± 0.03	0.6 ± 0.2	0.8 ± 0.23	0.38 ± 0.08	approximately 5 fold	–	–	–
CC[C@H](C)[C@H]1C(=O)N[C@@H](C)C(=O)N(C)[C@@H](CC(C)C)C(=O)N[C@@H](Cc2ccc(OC)cc2)C(=O)N(C)[C@H](C)C(=O)NC[C@H](N(C)C(=O)[C@H](CC(C)C)N(C)C(=O)[C@H](C)N(C)C(=O)[C@H](OC(=O)[C@H](C(C)C)N(C)C)C(C)C)C(=O)N(C)[C@@H](C)C(=O)N1C [Peptide 17a] (NMe2Val-[dHiv][NMeA][NMeL][NMeDap][NMeA][NMeI]A[NMeL]Y(Me)[dNMeA]; lactam 4-C)	–	30 ± 3.9	48 ± 3	60 ± 4	123 ± 25	–	–	–	–
CC[C@H](C)[C@H]1C(=O)N[C@@H](C)C(=O)N(C)[C@@H](CC(C)C)C(=O)N[C@@H](Cc2ccc(OC)cc2)C(=O)N(C)[C@H](C)C(=O)N[C@H](C)[C@H](N(C)C(=O)[C@H](CC(C)C)N(C)C(=O)[C@H](COC)N(C)C(=O)[C@H](OC(=O)[C@H](C(C)C)N(C)C)C(C)C)C(=O)N(C)[C@@H](COC)C(=O)N1C [Peptide 16b]	1.3 ± 0.3	0.04 ± 0.02	2.2 ± 0.4	3.4 ± 0.6	3.9 ± 1.5	–	–	–	–
CC[C@H](C)[C@H]1C(=O)N[C@@H](C)C(=O)N(C)[C@@H](CC(C)C)C(=O)N[C@@H](Cc2ccc(OC)cc2)C(=O)N(C)[C@H](C)C(=O)O[C@H](C)[C@H](N(C)C(=O)[C@H](CC(C)C)N(C)C(=O)[C@H](COC)N(C)C(=O)[C@H](OC(=O)[C@H](C(C)C)N(C)C)C(C)C)C(=O)N(C)[C@@H](COC)C(=O)N1C [Coibamide A (1a), coibamide A] (NMe2Val-[dHiv][NMeS](Me)[NMeL][NMeT][NMeS](Me)[NMeI]A[NMeL]Y(Me)[dNMeA]; ester 4-C)	1.5 ± 0.4	1.1 ± 0.3	50 ± 6	2.7 ± 0.5	–	–	6.7 ± 2.1	–	–
CC[C@H](C)[C@H]1C(=O)N[C@@H](C)C(=O)N(C)[C@@H](CC(C)C)C(=O)N[C@@H](Cc2ccc(OC)cc2)C(=O)N(C)[C@H](C)C(=O)N(C)C[C@H](N(C)C(=O)[C@H](CC(C)C)N(C)C(=O)[C@H](C)N(C)C(=O)[C@H](OC(=O)[C@H](C(C)C)N(C)C)C(C)C)C(=O)N(C)[C@@H](C)C(=O)N1C [Peptide 17b]	6500	–	–	–	–	–	–	–	–
CC[C@H](C)[C@H]1C(=O)N[C@@H](C)C(=O)N(C)[C@@H](CC(C)C)C(=O)N[C@@H](Cc2ccc(OC)cc2)C(=O)N(C)[C@H](C)CC[C@H](C)[C@H](N(C)C(=O)[C@H](CC(C)C)N(C)C(=O)[C@H](C)N(C)C(=O)[C@H](OC(=O)[C@H](C(C)C)N(C)C)C(C)C)C(=O)N(C)[C@@H](C)C(=O)N1C [Peptide 3a]	41 ± 4	18 ± 1	56 ± 2	121 ± 23	213 ± 29	–	–	statistically significant and concentration-dependent decreases	–
CC[C@H](C)[C@H]1C(=O)N[C@@H](C)C(=O)N(C)[C@@H](CC(C)C)C(=O)N[C@@H](Cc2ccc(OC)cc2)C(=O)N(C)[C@H](C)/C=C/[C@H](C)[C@H](N(C)C(=O)[C@H](CC(C)C)N(C)C(=O)[C@H](C)N(C)C(=O)[C@H](OC(=O)[C@H](C(C)C)N(C)C)C(C)C)C(=O)N(C)[C@@H](C)C(=O)N1C [Peptide 3b]	2.6 ± 0.4	13 ± 2	6.2 ± 0.1	11 ± 1	8.3 ± 2.1	–	–	–	10
